Experiments:
Format in all cases: in vivo
[1] = test system: Amarantus retroflexus (AMARE); assay: Biological Example 2 comparative herbicidal data, post-emergence glasshouse screen; settings: Amaranthus retroflexus, read-out: Post-emergence herbicidal activities (percentage phytotoxicity) AMARE
[2] = test system: Echinochloa crus-galli (ECHCG); assay: as above; settings: 312 h, read-out: Post-emergence herbicidal activities (percentage phytotoxicity) ECHCG
Method: (§1) Seeds of a variety of test species were sown in standard soil in pots. After cultivation for one day (pre-emergence) or after 8 days cultivation (post-emergence) under controlled conditions in a glasshouse (at 24/16° C., day/night; 14 hours light; 65% humidity), the plants were sprayed with an aqueous spray solution derived from the formulation of the technical active ingredient in acetone/I water (50:50) solution containing 0.5% Tween 20 (polyoxyethelyene sorbitan monolaurate, CAS RN 9005-64-5). The test plants were then grown in a glasshouse under controlled conditions in a glasshouse (at 24/16° C., day/night; 14 hours light; 65% humidity) and watered twice daily. After 13 days for pre and post-emergence, the test was evaluated visually for percentage phytotoxicity to the plant (where 100=total damage to plant; 0=no damage to plant).
(§2) Comparative herbicidal data is given below for certain exemplified compounds with 4-(prop-1-ynyl)-2,6-dimethylphenyl or 4-(chloroethynyl)-2,6-dimethylphenyl headgroups, compared to the corresponding compounds with either 4-ethynyl-2,6-dimethylphenyl or 2,4,6-trimethylphenyl headgroups, as follows. Comparative herbicidal data is also given below for certain exemplified compounds with 4-(prop-1-ynyl)-2-chloro-6-methoxyphenyl headgroups, compared to the corresponding compounds with 4-ethynyl-2-chloro-6-methoxyphenyl or 4-(but-1-ynyl)-2-chloro-6-methoxyphenyl or 4-methyl-2-chloro-6-methoxyphenyl or 2-chloro-6-methoxyphenyl headgroups, as follows.
(§3) Except where specified otherwise, the glasshouse screen for herbicidal activity is substantially the same as that presented in Biological Example 1A (Test 1A) hereinabove. The weed abbreviations are as defined in Biological Example 1A.

Setaria faberi (SETFA) [3] = assay: as above; settings: 312 h, read-out: Post-emergence herbicidal activities (percentage phytotoxicity) SETFA
Method: as §1, §2, §3

[4] = test system: Alopecurus myosuroides (ALOMY); assay: as above; settings: 312 h, read-out: Post-emergence herbicidal activities (percentage phytotoxicity) ALOMY
Method: as §1, §2, §3

[5] = test system: Amaranthus retroflexus (AMARE); assay: Test 1A glasshouse assay for herbicidal activity, post-emergence; settings: 312 h, evaluated after 13 days, read-out: percentage phytotoxicity AMARE
Method: as §1
(§4) Alopecurus myosuroides (ALOMY), Setaria faberi (SETFA), Echinochloa crus-galli (ECHCG), Solanum nigrum (SOLNI), Amaranthus retroflexus (AMARE), Ipomoea hederacea (IPOHE), and Abutilon theophasti Medik. (ABUTH, common English name “velvetleaf”). Of these, Alopecurus myosuroides (ALOMY), Setaria faberi (SETFA), and Echinochloa crus-galli (ECHCG) are grassy monocotyledonous weeds.

[6] = test system: Echinochloa crus-galli (ECHCG); assay: as above; settings: 312 h, evaluated after 13 days, read-out: percentage phytotoxicity ECHCG
Method: as §1, §4

Setaria faberi (SETFA) [7] = assay: as above; settings: 312 h, evaluated after 13 days, read-out: percentage phytotoxicity SETFA
Method: as §1, §4

[8] = test system: Abutilon theophasti Medik. (ABUTH); assay: as above; settings: 312 h, evaluated after 13 days, read-out: percentage phytotoxicity ABUTH
Method: as §1, §4

[9] = test system: Alopecurus myosuroides (ALOMY); assay: as above; settings: 312 h, evaluated after 13 days, read-out: percentage phytotoxicity ALOMY
Method: as §1, §4

[10] = test system: Amaranthus retroflexus (AMARE); assay: Test 1A glasshouse assay for herbicidal activity, pre-emergence; settings: 312 h, evaluated after 13 days, read-out: percentage phytotoxicity AMARE
Method: as §1, §4

[11] = test system: Echinochloa crus-galli (ECHCG); assay: as above; settings: 312 h, evaluated after 13 days, read-out: percentage phytotoxicity ECHCG
Method: as §1, §4

Setaria faberi (SETFA) [12] = assay: as above; settings: 312 h, evaluated after 13 days, read-out: percentage phytotoxicity SETFA
Method: as §1, §4

[13] = test system: Abutilon theophasti Medik. (ABUTH); assay: as above; settings: 312 h, evaluated after 13 days, read-out: percentage phytotoxicity ABUTH
Method: as §1, §4

[14] = test system: Alopecurus myosuroides (ALOMY); assay: as above; settings: 312 h, evaluated after 13 days, read-out: percentage phytotoxicity ALOMY
Method: as §1, §4

[15] = test system: Abutilon theophasti Medik. (ABUTH); assay: Biological Example 2 comparative herbicidal data, post-emergence glasshouse screen; settings: read-out: Post-emergence herbicidal activities (percentage phytotoxicity) ABUTH
[16] = test system: Digitaria sanguinalis (DIGSA); assay: Test 1B glasshouse assay for herbicidal activity, post-emergence; settings: 360 h, 250 g/ha application rate
Method: (§5) Seeds of a variety of monocotyledonous and dicotyledonous test plants are sown in standard soil in pots. The plants are cultivated for one day (for pre-emergence) or for about 12 days (range=10-13 days) (for post-emergence) under controlled conditions in a glasshouse (warm climate species at 24/18° C., cool climate species at 20/16° C., both at day/night; 16 hours light; 65% humidity).
(§6) An “instant formulation”, known as the “IF50”, containing 50 g/liter (i.e. 5% w/v) of the “technical” (i.e. unformulated) active ingredient is prepared by dissolving the active ingredient in a mixture of organic solvents and emulsifier, details of which are provided in the Table below. This IF50 is then mixed with a small, variable amount of acetone to aid dissolution, before addition of a 0.2% v/v aqueous solution of the adjuvant X-77 (which is a mixture of alkyl aryl polyoxyethylene glycols and free fatty acids in isopropanol, CAS Registry number 11097-66-8), as the aqueous diluent, to form an aqueous spray solution which contains a predetermined concentration of the active ingredient (which varies depending on the application rate of the active ingredient to the plants) and 0.2% v/v of the adjuvant X-77. This aqueous spray solution is then sprayed onto the plants, after one day's cultivation (for pre-emergence) or after about 12 days' cultivation (for post-emergence).
(§7) The test plants are then grown on, in a glasshouse (greenhouse) under controlled conditions (at either 24/18° C. or 20/16° C. (day/night) as mentioned above; 16 hours light; 65% humidity) and are watered twice daily. Either 15 days after application of the herbicide (15 DAA) (for post-emergence), or 20 days after application of the herbicide (20 DAA) (for pre-emergence), the test plants are evaluated visually, and an assessed percentage phytotoxicity score is given for each herbicidal application on each plant species (where 100%=total damage to plant; 0%=no damage to plant).
(§8) Warm climate (“warm season”) grassy monocotyledonous weeds: Setaria faberi (SETFA), SORVU (Sorghum bicolor (L.) Moench ssp. Bicolor, or Sorghum vulgare Pers.), Digitaria sanguinalis (DIGSA), Echinochloa crus-galli (ECHCG), and Brachiaria plantaginea (BRAPL).

[17] = test system: SORVU (Sorghum bicolor (L.) Moench ssp. Bicolor, or Sorghum vulgare Pers.); assay: as above; settings: 360 h, 250 g/ha application rate
Method: as §5, §6, §7, §8

[18] = test system: Brachiaria plantaginea (BRAPL); assay: as above; settings: Urochloa plantaginea, 250 g/ha application rate
Method: as §5, §6, §7, §8

Setaria faberi (SETFA) [19] = assay: as above; settings: 360 h, 250 g/ha application rate
Method: as §5, §6, §7, §8

[20] = test system: Echinochloa crus-galli (ECHCG); assay: as above; settings: Echinochloa crus-galli, 250 g/ha application rate
Method: as §5, §6, §7, §8
Note: The herbicidal activity data (e.g. post-emergence) shown above in Biological Example 1B for Comparator compounds X-9 and X-10 is thought likely to have been measured some years ago, probably using a variant of the above-described test method. Also, for the post-emergence activity of X-9 and X-10 it is not currently known exactly how many days after application of the herbicide the phytotoxicity on the plants was measured.

Avena fatua (AVEFA) = assay: as above; settings: 360 h, 250 g/ha application rate
Method: as §5, §6, §7
(§9) Cool climate (“cool season”) grassy monocotyledonous weeds: Alopecurus myosuroides (ALOMY), Avena fatua (AVEFA), Lolium perenne (LOLPE).

Lolium perenne (LOLPE) = assay: as above; settings: 360 h, 250 g/ha application rate
Method: as §5, §6, §7, §9

[21] = test system: Alopecurus myosuroides (ALOMY); assay: as above; settings: 360 h, 250 g/ha application rate
Method: as §5, §6, §7, §9

[22] = test system: Glycine max (GLXMA, soybean); assay: as above; settings: 360 h, 250 g/ha application rate
Method: as §5, §6, §7
Warm climate crop plants: Glycine max (GLXMA, soybean).

[23] = test system: Beta vulgaris (BEAVA, sugar beet); assay: as above; settings: 360 h, 250 g/ha application rate
Method: as §5, §6, §7
(§10) Cool climate crop plants: Triticum aestivum (TRZAW, winter wheat), Brassica napus (BRSNN, rape, also called oilseed rape or rapeseed), Beta vulgaris (BEAVA, sugar beet).

[24] = test system: Brassica napus (BRSNN, rape); assay: as above; settings: 360 h, 250 g/ha application rate
Method: as §5, §6, §7, §10

[25] = test system: Triticum aestivum (TRZAW, winter wheat); assay: as above; settings: 360 h, 250 g/ha application rate
Method: as §5, §6, §7, §10

Compound `C#Cc1cc(C)c(C2C(=O)CC(c3ccccn3)CC2=O)c(C)c1` (stereo not drawn) [Compound X-4, reference compound] has a pest or weed control at 8 g/ha ([1]; 8 g/ha application rate) of 0%, a pest or weed control at 30 g/ha ([1]; 30 g/ha application rate) of 0% and a pest or weed control at 8 g/ha ([2]; 8 g/ha application rate) of 20%. It also gave a pest or weed control at 30 g/ha ([2]; 30 g/ha application rate) of 40%, a pest or weed control at 8 g/ha (Setaria faberi (SETFA) [3]; 8 g/ha application rate) of 40% and a pest or weed control at 30 g/ha (Setaria faberi (SETFA) [3]; 30 g/ha application rate) of 50%. The pest or weed control at 8 g/ha ([4]; 8 g/ha application rate) was 40%, the pest or weed control at 30 g/ha ([4]; 30 g/ha application rate) was 60% and the pest or weed control at 30 g/ha ([5]; 30 g/ha) was 0%. The pest or weed control at 250 g/ha ([5]; 250 g/ha) was 0%, the pest or weed control at 30 g/ha ([6]; 30 g/ha) was 40% and the pest or weed control at 250 g/ha ([6]; 250 g/ha) was 100%. For the same compound, the pest or weed control at 30 g/ha (Setaria faberi (SETFA) [7]; 30 g/ha) was 50%, the pest or weed control at 250 g/ha (Setaria faberi (SETFA) [7]; 250 g/ha) was 100% and the pest or weed control at 30 g/ha ([8]; 30 g/ha) was 0%. For the same compound, the pest or weed control at 250 g/ha ([8]; 250 g/ha) was 80%, the pest or weed control at 30 g/ha ([9]; 30 g/ha) was 60% and the pest or weed control at 250 g/ha ([9]; 250 g/ha) was 80%. The pest or weed control at 30 g/ha ([10]; 30 g/ha) was 0%, the pest or weed control at 250 g/ha ([10]; 250 g/ha) was 0% and the pest or weed control at 30 g/ha ([11]; 30 g/ha) was 30%. It also gave a pest or weed control at 250 g/ha ([11]; 250 g/ha) of 90%, a pest or weed control at 30 g/ha (Setaria faberi (SETFA) [12]; 30 g/ha) of 40% and a pest or weed control at 250 g/ha (Setaria faberi (SETFA) [12]; 250 g/ha) of 100%. For the same compound, the pest or weed control at 30 g/ha ([13]; 30 g/ha) was 0%, the pest or weed control at 250 g/ha ([13]; 250 g/ha) was 0% and the pest or weed control at 30 g/ha ([14]; 30 g/ha) was 0%. For the same compound, the pest or weed control at 250 g/ha ([14]; 250 g/ha) was 70%, the pest or weed control at 8 g/ha ([15]; 8 g/ha application rate) was 0% and the pest or weed control at 30 g/ha ([15]; 30 g/ha application rate) was 0%.
For `CC#Cc1cc(Cl)c(C2C(=O)C3CCC(C3)C2=O)c(OCCOC)c1` (stereo not drawn) [Compound A-18], the pest or weed control at 250 g/ha [16] was 90%, the pest or weed control at 250 g/ha [17] was 100% and the pest or weed control at 250 g/ha [18] was 70%. For the same compound, the pest or weed control at 250 g/ha (Setaria faberi (SETFA) [19]) was 80%, the pest or weed control at 250 g/ha [20] was 90% and the pest or weed control at 250 g/ha (Avena fatua (AVEFA)) was 20%. It also gave a pest or weed control at 250 g/ha (Lolium perenne (LOLPE)) of 0%, a pest or weed control at 250 g/ha [21] of 0% and a plant injury at 250 g/ha [22] of 20%. It also gave a plant injury at 250 g/ha [23] of 30%, a plant injury at 250 g/ha [24] of 30% and a plant injury at 250 g/ha [25] of 10%.

— US9615577B2, “Herbicidally active cyclic dione compounds, or derivatives therefor, substituted by a phenyl which has an alkynyl-containing substituent” (Syngenta Limited, priority 2012, dated 2017)
